≈ marks a conversion by molar mass, not a printed value. Like-named read-outs stand apart in the source and are kept apart here.
What was measured:
herpes simplex virus = conditions: cited from earlier work
[1] = system: oral or genital herpes simplex virus disease; conditions: cited from earlier work
[2] = system: antiviral activity of ara-A; test: effect of benzocaine added to the medication on antiviral activity of ara-A; conditions: benzocaine in the medication
From the text: The medication of the present invention has been prepared and used both ways.

patient = test: effect of benzocaine in DMSO on the patient; format: in vivo; conditions: administered in DMSO
[3] = system: DNA viruses, including herpes simplex; conditions: combined with dimethyl sulfoxide (DMSO); cited from earlier work
[4] = system: interstitial spaces and cell walls; conditions: not told; cited from earlier work
skin [5] = conditions: in vivo
Experimental: This rash, however, usually disappears shortly thereafter with no ill effects. Annals of the New York Academy of Sciences, […]. S. W. Jacob, E. E. Rosenhaum and D. C. Wood, Eds., Vol. 1 Dimethyl Sulfoxide 99, (marcel Depper, Inc., New York, N.Y. 1971); and Annals of the New York Academy of Sciences, Vol. 243 (1975). In the present invention DMSO is diluted to 70% with demineralized water before ara-A is added.

skin [6] = conditions: applied to the skin; cited from earlier work
animals and humans = conditions: cited from earlier work
[7] = format: physicochemical
From the text: There are no special procedures involved in the preparation of the antiviral composition of the present invention. The demineralized water and DMSO can be mixed and the ara-A (and benzocaine if used) dissolved in the DMSO and water solution. The ara-A can be added to the pure DMSO, and water added last. When water and DMSO are mixed, the solution becomes warm because there is a positive heat of solution. […] Ara-A can be recovered from the DMSO and water solution virtually 100 percent as unchanged ara-A.

vaccinia virus = conditions: in vitro and in vivo (animal models or man); cited from earlier work
cytomegalovirus = conditions: in vitro and in vivo (animal models or man); cited from earlier work
mice = conditions: cited from earlier work
varicella-zoster virus = conditions: in vitro and in vivo (animal models or man); cited from earlier work
man [8] = test: toxicity and side effects in man; format: in vivo; conditions: average 150 pound man; converted from oral LD50 in rats and mice
Experimental: Regarding toxicity or other side effects on the patient, extensive pharmacology and toxicity studies ara-A have been carried out in animals and in man. […] This dose level indicates a low order of toxicity to a single parenteral dose. The acute oral LD50 in both rats and mice is greater than 5000 mg/kg. This amount would be equivalent to more than […] in an average 150 pound person. […] In the form used in the present invention and with treatment by topical application, it is highly unlikely that any toxic side effects of ara-A would be observed.

[9] = cited from earlier work
DNA polymerase = conditions: cited from earlier work
solubility = format: physicochemical; conditions: organic solvent or mixture; DMSO solvent system; read-out: concentration achieved using DMSO as the solvent system
Experimental: By using DMSO as the solvent system, it is possible to achieve a concentration of 10 mg/ml or greater. DMSO transports the ara-A directly into the virus infected cell where active viral replication is occurring. The drug interfers with viral DNA synthesis causing inhibition of viral maturation.
DMSO serves two purposes in enhancing the therapeutic action of ara-A. First, DMSO allows a concentration of ara-A that is more than 20 times greater than can be achieved with water alone. […] It is this percutaneous property of DMSO that is apparently responsible for the extraordinary effectiveness of this medication.

rats = conditions: cited from earlier work
man [10] = conditions: cited from earlier work
DNA viruses = conditions: in vitro and in vivo (animal models or man); cited from earlier work
Epstein-Barr (E-B) virus = conditions: in vitro and in vivo (animal models or man); cited from earlier work

Structure (SMILES): NC(=O)c1ncn([C@@H]2O[C@H](CO)[C@@H](O)[C@H]2O)n1 [ribavirin]
- destruction of herpes simplex virus in a laboratory setting (herpes simplex virus): will destroy the herpes simplex virus
- success in combating oral or genital herpes simplex virus disease in a clinical setting [1]: none of these antiviral agents have been successful

Structure (SMILES): CCOC(=O)c1ccc(N)cc1 [benzocaine]
- effect of benzocaine on antiviral activity of ara-A [2]: does not impair the antiviral activity of ara-A
- deleterious effect of benzocaine on the patient (patient): Nor does the benzocaine appear to have any deleterious affect on the patient

Structure (SMILES): Nc1nc2c(ncn2COCCO)c(=O)[nH]1 [acyclovir]
- destruction of herpes simplex virus in a laboratory setting (herpes simplex virus): will destroy the herpes simplex virus
- success in combating oral or genital herpes simplex virus disease in a clinical setting [1]: none of these antiviral agents have been successful

Structure (SMILES): O=c1[nH]c(=O)n([C@H]2C[C@H](O)[C@@H](CO)O2)cc1I [IdU, 5-iododexyuridine]
- clearing of skin lesions [3]: purportedly cleared up skin lesions
- prevention of recurrence [3]: prevent recurrence

Structure (SMILES): C[S+](C)[O-] [DMSO, dimethyl sulfoxide]
- permeation of interstitial spaces and cell walls [4]: unique ability of permeating the interstitial spaces and cell walls
- skin irritation at 70% DMSO (skin [5]): usually nonirritating to normal skin
- skin reaction to undiluted DMSO (skin [6]): sometimes may cause an itching or burning sensation with redness or a rash
- toxicity of DMSO (animals and humans): essentially nontoxic

Structure (SMILES): O=C(O)CP(=O)(O)O [phosphonacetic acid]
- destruction of herpes simplex virus in a laboratory setting (herpes simplex virus): will destroy the herpes simplex virus
- success in combating oral or genital herpes simplex virus disease in a clinical setting [1]: none of these antiviral agents have been successful

Structure (SMILES): Nc1ncnc2c1ncn2[C@@H]1O[C@H](CO)[C@@H](O)[C@@H]1O [ara-A, adenine-9-beta-D-arabinofuranoside]
- recovery of unchanged ara-A ([7]; from the DMSO and water solution): ~100%
- chemical reaction between ara-A and DMSO ([7]; under the conditions of preparation): no chemical reaction between ara-A and DMSO
- activity against vaccinia virus (vaccinia virus): active
- activity against cytomegalovirus (cytomegalovirus): active
- acute oral LD50 (mice): greater than 5000 mg/kg
- activity against varicella-zoster virus (varicella-zoster virus): active
- amount equivalent to the acute oral LD50 in an average 150 pound person (man [8]): more than 750 grams
- antiviral activity against the herpes simplex virus (herpes simplex virus): effective antiviral agent against the herpes simplex virus
- destruction of herpes simplex virus in a laboratory setting (herpes simplex virus): will destroy the herpes simplex virus
- solubility in water ([9]; 25C): 450 µg/mL (≈ 1.68 mM)
- solubility in water [9]: highly insoluble in water
- inhibition of DNA polymerase (DNA polymerase): inhibits the enzyme DNA polymerase
- success in combating oral or genital herpes simplex virus disease in a clinical setting [1]: none of these antiviral agents have been successful
- effectiveness against oral or genital herpes ([1]; ointment form (ocular herpes) or infusion for 12 to 24 hours (herpes encephalitis)): Neither of these treatments are effective against oral or genital herpes
- solubility (solubility): ≥ 10000 µg/mL
- acute oral LD50 (rats): greater than 5000 mg/kg
- side effects of massive acute overdosage (man [10]; intravenous form, massive acute overdosage): without any serious side effect
- redness and irritation after topical application (man [10]; topical application, some cases): redness and slight irritation
- toxicity through topical application (man [10]; topical application): not possible to demonstrate toxicity through topical application
- activity against a broad spectrum of DNA viruses (DNA viruses): active
- activity against Epstein-Barr virus (Epstein-Barr (E-B) virus): active

Structure (SMILES): O=CC[C@@H](O)[C@H](O)[C@H](O)CO [2-deoxy-d-glucose]
- destruction of herpes simplex virus in a laboratory setting (herpes simplex virus): will destroy the herpes simplex virus
- success in combating oral or genital herpes simplex virus disease in a clinical setting [1]: none of these antiviral agents have been successful

— patent US4499084A, “Ara-A Antiviral composition and method of administering the same” (priority 1983, dated 1985)
